From patent US9492365B2, “Use of caftaric acid and derivatives in food supplement for regulating skin pigmentation” (Nestec S.A., priority 2010, dated 2016)

Key:
filaggrin = test: Synthesis of filaggrin by human epidermal keratinocytes (immunolabeling); type: cell-based; conditions: human primary epidermal keratinocytes, 144 hours
Description: The potential beneficial effect of the Extracts of Example 1 towards skin barrier function and skin hydration was evaluated by using 2D culture of human primary epidermal keratinocytes and we assessed their synthesis of filaggrin. Human epidermal keratinocytes were cultured in control keratinocytes-SFM medium, in a humidified chamber at 37° C. and containing 5% CO2. Cells were incubated with the selected ingredients or the test references (CaCl2 at 1.5 mM) for 144 hours. The production of filaggrin by was evaluated by immunolabeling.

HDF = test: Highest non cytotoxic concentration on HDF; type: cell-based; conditions: HDF cells
tyrosinase = test: Production of tyrosinase by B16 murine melanocyte cell line (immunolabeling); type: cell-based; conditions: B16 melanocytes, 48 hours, immunolabeling (FIG. 2)
Description: In order to evaluate the potential beneficial effect of ingredients towards skin de- or pro-pigmentation we used 2D culture of murine melanocytes (B16) and we performed 2 tests: 1—assessment of melanin production and 2—assessment of tyrosinase production. 1. The cell culture conditions. • B16 cells were cultured in DMEM 1 g/L glucose without phenol red supplemented with 10% foetal calf serum, in a humidified chamber at 37° C. and containing 5% CO2. 3. The production of tyrosinase by B16 murine melanocyte cell line. • Cells were incubated with the selected ingredients or the test references (Kojic acid at 400 μg/mL) for 48 hours. The production of tyrosinase was evaluated by immunolabeling.

HPEK = test: Highest non cytotoxic concentration on HPEK; type: cell-based, human; conditions: HPEK cells
B16 murine melanocytes = test: Production of melanin by B16 murine melanocyte cell line; type: cell-based; conditions: B16 melanocytes treated for 72 hours, presence or absence of NDP-MSH; relative to control (FIG. 1); Kojic acid at 400 μg/mL
Description: In order to evaluate the potential beneficial effect of ingredients towards skin de- or pro-pigmentation we used 2D culture of murine melanocytes (B16) and we performed 2 tests: 1—assessment of melanin production and 2—assessment of tyrosinase production. 1. The cell culture conditions. • B16 cells were cultured in DMEM 1 g/L glucose without phenol red supplemented with 10% foetal calf serum, in a humidified chamber at 37° C. and containing 5% CO2. 2. The production of melanin by B16 murine melanocyte cell line. • Cells were incubated with the selected ingredients or the test references (Kojic acid at 400 μg/mL) for 72 hours, in the presence or absence of NDP-MSH an analog of MSH. The total quantity of melanin (extracellular and intracellular) was evaluated by measurement of the optical density at 405 nm of each sample against melanin standards in presence or in absence of NDP-MSH.

Row | SMILES | Filaggrin production (filaggrin) | Highest non cytotoxic conc. on HDF (HDF) | Production of tyrosinase (tyrosinase) | Highest non cytotoxic conc. on HPEK (HPEK) | Melanin production (B16 murine melanocytes)
1 | O=C(/C=C/c1ccc(O)c(O)c1)O[C@@H](C(=O)O)[C@@H](O)C(=O)O [Caftaric acid] | increased filaggrin production | 1 mM | decreased by these ingredients but to a limited extent | 1 mM | decreased the production of melanin in vitro, more efficiently than the tested chicory extract MS-70
2 | O=c1cc(CO)occ1O [Kojic acid, reference compound] |  |  |  |  | decrease in melanin production
